From PubChem BioAssay (NCI)
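Tested at 5 concentrations; 48 h exposure; 96-well plates; endpoints linearly interpolated, else capped at highest concentration. GI50 marks 50% less growth. TGI: concentration producing complete growth inhibition.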

What was measured:
Experiment in all cases: inhibition of tumour cell growth, NCI panel, 48 h
CAKI-1 renal = system: CAKI-1 renal
HL-60(TB) leukemia = system: HL-60(TB) leukemia
MDA-MB-435 = system: MDA-MB-435
HCC-2998 colon = system: HCC-2998 colon
SF-539 CNS = system: SF-539 CNS
PC-3 prostate = system: PC-3 prostate
UACC-257 melanoma = system: UACC-257 melanoma
MDA-MB-231 breast = system: MDA-MB-231 breast
SK-MEL-2 melanoma = system: SK-MEL-2 melanoma
HT29 colon = system: HT29 colon
M14 melanoma = system: M14 melanoma
HCT-15 colon = system: HCT-15 colon
RXF 393 renal = system: RXF 393 renal
MCF7 breast = system: MCF7 breast
MOLT-4 leukemia = system: MOLT-4 leukemia
MALME-3M melanoma = system: MALME-3M melanoma
SF-295 CNS = system: SF-295 CNS
SNB-19 CNS = system: SNB-19 CNS
NCI-H460 lung = system: NCI-H460 lung
NCI/ADR-RES ovarian = system: NCI/ADR-RES ovarian
CCRF-CEM leukemia = system: CCRF-CEM leukemia
NCI-H23 lung = system: NCI-H23 lung
786-0 renal = system: 786-0 renal
OVCAR-4 ovarian = system: OVCAR-4 ovarian
NCI-H522 lung = system: NCI-H522 lung
EKVX NSCLC = system: EKVX NSCLC
HS 578T breast = system: HS 578T breast
U251 CNS = system: U251 CNS
SK-MEL-28 melanoma = system: SK-MEL-28 melanoma

CN(C)CCCNC(=O)c1cc(NC(=O)c2cc(NC(=O)c3ccc(/C=C/c4ccccc4)cc3)cn2C)cn1C
GI50 (CAKI-1 renal): 10.9 µM | TGI (CAKI-1 renal): > 31.3 µM | GI50 (HL-60(TB) leukemia): 7.05 µM | TGI (HL-60(TB) leukemia): 20.7 µM | GI50 (MDA-MB-435): 8.48 µM | TGI (MDA-MB-435): > 31.3 µM | GI50 (HCC-2998 colon): 10.1 µM | TGI (HCC-2998 colon): > 31.3 µM | GI50 (SF-539 CNS): 5.41 µM | TGI (SF-539 CNS): 10.9 µM | GI50 (PC-3 prostate): 10.1 µM | TGI (PC-3 prostate): > 31.3 µM | GI50 (UACC-257 melanoma): 10.5 µM | TGI (UACC-257 melanoma): > 31.3 µM | GI50 (MDA-MB-231 breast): 8.81 µM | TGI (MDA-MB-231 breast): > 31.3 µM | GI50 (SK-MEL-2 melanoma): 5.32 µM | TGI (SK-MEL-2 melanoma): 10.9 µM | GI50 (HT29 colon): 5.89 µM | TGI (HT29 colon): 21.1 µM | GI50 (M14 melanoma): 5.05 µM | TGI (M14 melanoma): 10.1 µM | GI50 (HCT-15 colon): 7.26 µM | TGI (HCT-15 colon): 25.7 µM | GI50 (RXF 393 renal): 3.2 µM | TGI (RXF 393 renal): 19 µM | GI50 (MCF7 breast): 1.71 µM | TGI (MCF7 breast): 6.85 µM | GI50 (MOLT-4 leukemia): 7.27 µM | TGI (MOLT-4 leukemia): 25.9 µM | GI50 (MALME-3M melanoma): 7.41 µM | TGI (MALME-3M melanoma): > 31.3 µM | GI50 (SF-295 CNS): 8.56 µM | TGI (SF-295 CNS): > 31.3 µM | GI50 (SNB-19 CNS): 16.7 µM | TGI (SNB-19 CNS): > 31.3 µM | GI50 (NCI-H460 lung): 6.91 µM | TGI (NCI-H460 lung): 16.2 µM | GI50 (NCI/ADR-RES ovarian): 7.76 µM | TGI (NCI/ADR-RES ovarian): 24.3 µM | GI50 (CCRF-CEM leukemia): 5.03 µM | TGI (CCRF-CEM leukemia): 21.5 µM | GI50 (NCI-H23 lung): 13.2 µM | TGI (NCI-H23 lung): > 31.3 µM | GI50 (786-0 renal): 9.14 µM | TGI (786-0 renal): > 31.3 µM | GI50 (OVCAR-4 ovarian): 16.1 µM | TGI (OVCAR-4 ovarian): > 31.3 µM | GI50 (NCI-H522 lung): 7.34 µM | TGI (NCI-H522 lung): 24.2 µM | GI50 (EKVX NSCLC): 10.6 µM | TGI (EKVX NSCLC): > 31.3 µM | GI50 (HS 578T breast): 8.39 µM | TGI (HS 578T breast): > 31.3 µM | GI50 (U251 CNS): 5.36 µM | TGI (U251 CNS): 10.7 µM | GI50 (SK-MEL-28 melanoma): 15.2 µM | TGI (SK-MEL-28 melanoma): > 31.3 µM
